Counter-ions that a name gives are not always drawn. Like-named read-outs stand apart in the source and are kept apart here.
Experiments:
in vivo = conditions: rabbit
Excerpt: Sampling was done from the anterior chamber for the first five animals after 1 hr, 3 hr, 6 hr, 12 hr, and 24 hr, and from both the anterior chamber and posterior segment of the remaining five animals after 1 hr, 3 hr, 6 hr, 24 hr, and 48 hr. One animal was used for each time point.

[1] = aqueous / dissolution medium (0.9% saline), cited from earlier work

CC(C)(C)NC[C@H](O)COc1nsnc1N1CCOCC1 [Timolol Maleate, (−)-1-(tert-butylamino)-3-[(4-morpholino-1,2,5-thiadiazo-3-yl)oxy]-2-propanol maleate, (1:1) salt]
clearance in the posterior segment compared with anterior chamber (in words) (in vivo): relatively slower clearance rate
half-life (in vivo): ~1.43 h
levels in the anterior chamber from posterior segment bolus injection (in words) (in vivo): the levels were small and considered insignificant
solubility in aqueous medium (in words) ([1]; listed as timolol maleate): high water solubility

CC(C)(C)NC[C@H](O)COc1nsnc1N1CCOCC1 [Timolol freebase]
solubility in aqueous medium (in words) [1]: less soluble

From patent US8715709B2, “Sustained release intraocular implants and methods for treating ocular neuropathies” (Allergan, Inc., priority 2004, dated 2014)
